Assays:
[1] = target: T1, Amine oxidase [flavin-containing] A (Homo sapiens, UniProt P21397); experiment: Inhibition of human recombinant MAO-A expressed in baculovirus infected BTI-TN-5B1-4 insect cells assessed as inhibition of hydrogen peroxide production from […] after 15 mins by fluorimetric method; details: bti-tn-5b1-4, 0.25 h
T1 sequence (P21397 whole entry): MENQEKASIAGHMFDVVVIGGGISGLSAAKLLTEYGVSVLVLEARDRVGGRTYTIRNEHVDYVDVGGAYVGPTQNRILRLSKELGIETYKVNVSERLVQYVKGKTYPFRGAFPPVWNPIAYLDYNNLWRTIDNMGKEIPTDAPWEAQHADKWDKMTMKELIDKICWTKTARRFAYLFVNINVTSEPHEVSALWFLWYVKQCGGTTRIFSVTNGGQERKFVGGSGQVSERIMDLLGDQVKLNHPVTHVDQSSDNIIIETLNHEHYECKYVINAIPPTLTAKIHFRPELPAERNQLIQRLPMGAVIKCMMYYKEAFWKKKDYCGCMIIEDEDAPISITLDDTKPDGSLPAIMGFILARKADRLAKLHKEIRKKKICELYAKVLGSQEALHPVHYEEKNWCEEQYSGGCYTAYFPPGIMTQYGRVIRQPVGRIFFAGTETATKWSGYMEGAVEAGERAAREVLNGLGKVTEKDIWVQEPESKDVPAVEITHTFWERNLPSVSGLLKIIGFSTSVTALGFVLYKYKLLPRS

[2] = target: T1, Amine oxidase [flavin-containing] A; experiment: Inhibition of human recombinant MAO-A expressed in baculovirus infected BTI-TN-5B1-4 insect cells assessed as inhibition of hydrogen peroxide production from […] at 100 uM after 15 mins by fluorimetric method; details: for inhibition at 100 µM: BTI-TN-5B1-4, human, 0.25 h; for inhibition (INH): human, bti-tn-5b1-4, 0.25 h, 100 µM
[3] = target: T2, Amine oxidase [flavin-containing] B (Homo sapiens, UniProt P27338); experiment: biochemical
T2 sequence (P27338 whole entry): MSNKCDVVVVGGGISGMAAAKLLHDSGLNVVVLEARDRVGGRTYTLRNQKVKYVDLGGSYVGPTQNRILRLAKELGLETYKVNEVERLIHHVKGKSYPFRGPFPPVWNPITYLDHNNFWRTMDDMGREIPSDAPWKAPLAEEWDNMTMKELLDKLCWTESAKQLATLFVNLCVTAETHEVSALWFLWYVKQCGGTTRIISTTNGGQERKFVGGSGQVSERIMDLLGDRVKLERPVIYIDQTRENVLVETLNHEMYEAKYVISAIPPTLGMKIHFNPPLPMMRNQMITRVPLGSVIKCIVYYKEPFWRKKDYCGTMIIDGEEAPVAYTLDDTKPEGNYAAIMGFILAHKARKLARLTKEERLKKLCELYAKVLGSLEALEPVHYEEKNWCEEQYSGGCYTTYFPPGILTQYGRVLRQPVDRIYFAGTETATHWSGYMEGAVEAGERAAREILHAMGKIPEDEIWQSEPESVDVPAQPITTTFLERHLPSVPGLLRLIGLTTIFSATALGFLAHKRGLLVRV
Description: Inhibition of human recombinant MAO-B expressed in baculovirus infected BTI-TN-5B1-4 insect cells assessed as inhibition of hydrogen peroxide production from p-tryptamine after 15 mins by fluorimetric method

[4] = target: T2, Amine oxidase [flavin-containing] B; experiment: Inhibition of human recombinant MAO-B expressed in baculovirus infected BTI-TN-5B1-4 insect cells assessed as inhibition of hydrogen peroxide production from […] at 1 mM after 15 mins by fluorimetric method; details: bti-tn-5b1-4, 0.25 h, 1000 µM
[5] = target: T2, Amine oxidase [flavin-containing] B; experiment: Inhibition of human recombinant MAO-B expressed in baculovirus infected BTI-TN-5B1-4 insect cells assessed as inhibition of hydrogen peroxide production from […] at 100 uM after 15 mins by fluorimetric method; details: BTI-TN-5B1-4, human, 0.25 h

Row | Structure (SMILES) | inhibition (INH) [1] | inhibition at 100 µM [2] [%] | IC50 [3] [nM] | inhibition at 100 µM [5] [%] | inhibition (INH) [2] | inhibition (INH) [4]
1 | O=C(NCCN1CCOCC1)c1ccc(Cl)cc1 [MOCLOBEMIDE] | Dose-dependent effect |  |  |  |  | Not Active
2 | Fc1ccc(-c2csc(N/N=C/c3ccc(Cl)cc3)n2)cc1 | Dose-dependent effect | 40 | 1320 |  |  | 
3 | Cc1ccccc1/C=N/Nc1nc(-c2ccc(Cl)cc2)cs1 | Dose-dependent effect | 40 |  | 40 |  | 
4 | COc1ccc(/C=N/Nc2nc(-c3ccc(Cl)cc3)cs2)cc1 | Dose-dependent effect | 40 |  | 40 |  | 
5 | Cc1ccc(/C=N/Nc2nc(-c3ccc(F)cc3)cs2)cc1 | Dose-dependent effect |  | 44700 |  | Not Active | 
6 | COc1ccc(/C=N/Nc2nc(-c3ccc(Cl)cc3)cs2)cc1OC | Dose-dependent effect | 40 |  | 40 |  | 
7 | C#CCN(C)CCCOc1ccc(Cl)cc1Cl [CLORGILINE] | Dose-dependent effect |  |  |  |  | 
8 | Cc1ccc(/C=N/Nc2nc(-c3ccc(Cl)cc3)cs2)cc1 | Dose-dependent effect |  |  | 40 | Not Active | 

Second part, led by results:

Row | inhibition (INH) [1] | inhibition at 100 µM [2] [%] | IC50 [3] [nM] | inhibition at 100 µM [5] [%] | inhibition (INH) [2] | Structure (SMILES) | inhibition (INH) [4]
9 | Dose-dependent effect | 40 | 9240 |  |  | COc1ccc(/C=N/Nc2nc(-c3ccc(F)cc3)cs2)cc1 | 
10 | Dose-dependent effect | 40 |  | 40 |  | Clc1ccc(/C=N/Nc2nc(-c3ccc(Cl)cc3)cs2)cc1 | 
11 | Dose-dependent effect | 40 | 190 |  |  | Cc1ccccc1/C=N/Nc1nc(-c2ccc(F)cc2)cs1 | 
12 | Dose-dependent effect | 40 | 2390 |  |  | COc1ccc(/C=N/Nc2nc(-c3ccc(F)cc3)cs2)cc1OC | 
13 | Dose-dependent effect | 40 | 790 |  |  | Fc1ccc(-c2csc(N/N=C/c3ccccc3)n2)cc1 | 
14 | Dose-dependent effect | 40 |  | 40 |  | Clc1ccc(-c2csc(N/N=C/c3ccccc3)n2)cc1 | 

Source: ChEMBL document CHEMBL1932930, “Synthesis and biological assessment of novel 2-thiazolylhydrazones and computational analysis of their recognition by monoamine oxidase B” (Eur J Med Chem, 2012)
